The source of these data is US20030186315A1, “ADMINISTRATION OF AN AGENT WHICH DECREASES PROCESSING OF AMYLOID PRECURSOR PROTEIN” (priority 1999, published 2003).

Assay [1] relates to NT2N neurons. In words: ELISA distinguishing Aβ40 and Aβ42 in cell lysates and medium of BFA-treated NT2N neurons. It is filed as cell-based, human. On the procedure:
Cell lysates and medium from the cells were then analyzed using an ELISA system which quantitatively distinguishes between Aβ40 and Aβ42 to ascertain whether alteration of Aβ levels by BFA was the result of altered levels of Aβ40, Aβ42 or both. Suzuki et al. 1994 Science 264:1336-1340. Results from the ELISA correlated with the immunoprecipitation data in that BFA abolished secretion of Aβ into the medium and reduced overall expression of intracellular Aβ by approximately 60%. However, it was the complete loss of […] that accounted for this decrease. […] Thus, γ-secretases appear to be active in the endoplasmic reticulum, but only to yield Aβ42. Further, it is believed that Aβ42 is preferentially generated in the ER while Aβ40, is generated in more distal components of the exocytic pathway.
NT2N neurons were pretreated with 20 Ag/ml of BFA for 1 hour before the addition of 0.5 mCi/ml of [^35S] methionine to the cultures for 16 hours in the absence or presence of BFA. The cell lysates and media were processed for immunoprecipitation as described in Example 3. For deglycosylation of APPG, the immunoprecipitates containing APPβ were washed twice in sodium phosphate buffer (20 mmol/l, pH 7.2) and boiled for 2 minutes in 10 μl of 1% SDS. The samples were then boiled for an additional 2 minutes after adding 90 μl of the sodium phosphate buffer with sodium azide (10 mmol/l), EDTA (50 mmol/l), and n-Octylglucoside (0.5% w/v). After this denaturation step, deglycosylation was initiated by the addition of 2 mU Neuraminidase (Arthrobacter; Boehringer Mannheim, Indianapolis, Ind.), 2.5 mU 0-Glycosidase (Boehringer Mannheim, Indianapolis, Ind.), and 0.4 U N-Glycosidase F (Boehringer Mannheim, Indianapolis, IN). The samples were then incubated at 37° C. for 18 hours and deglycosylated APPβ was run on 7.5% SDS-PAGE gels as described in Example 2.

Assay [2] has as its system human kidney 293 cells stably transfected with APPsw cDNA. The conditions noted are these: non-neuronal 293 cells expressing APPsw; cited from earlier work.
Assay [3] concerns NT2N cells. Nature of the assay: Indirect immunofluorescence microscopy of cell surface distribution of SFV-expressed APP695 in NT2N cells. It is filed as cell-based, human. The settings on record: SFV-infected NT2N cells, 20 μg/ml BFA after infection. On the procedure: Since BFA treatment results in retention of all newly synthesized proteins in the ER, additional experiments were conducted to confirm that the generation of Aβ42 in the ER was not due to retention of newly synthesized proteases not being delivered to their proper site of action. Accordingly, an ER-retention signal was placed in APP695 in which the third and fourth amino acids from the C-terminus were changed to lysine (APP695ΔKK) . This lysine motif is sufficient to retain heterologous transmembrane proteins in the ER and intermediate compartment. In these experiments, recombinant Semliki Forest virus (SFV) vectors to express APP695ΔKK. Previous studies have shown that despite high levels of SFV-mediated APP expression, SFV infected NT2N cells display a high degree of fidelity in processing APP (Wertkin et al. 1993 Proc. Natl. Acad. Sci. USA 90:9513-9517; Turner et al. 1996 J. Biol. Chem. 271:8966-8970). […] To determine if APP695ΔKK was in fact retained in the ER, indirect immunofluorescence microscopy was used to monitor both intracellular and cell surface distribution of SFV-expressed APP695 and APP695ΔKK. While intracellular levels of APP695 and APP695ΔKK appeared similar, only APP695 was expressed on the cell surface. […]

In assay [4] the test system is NT2N neurons. In words: Brefeldin A treatment of [35S]methionine-labeled NT2N neurons, immunoprecipitation of APP fragments from cell lysates and media. It is filed as cell-based, human. An excerpt:
The detection of APPβ in the cell lysate of NT2N neurons, together with the presence of Aβ40 and Aβ42 (Turner et al. 1996 J. Biol. Chem. 271:8966-8970), establish that an intracellular β-secretase pathway(s) exists in these cells. At present, no other cell line has been reported to produce detectable levels of intracellular APPβ from endogenous or over-expressed wild-type APP (Seubert et al. 1993 Nature 361:260-263; Haass et al. 1995a Nature Med. 1:1291-1296; Thinakaran et al. 1996b J. Biol. Chem. 271:9390-9397). […] In the absence of BFA, APPFL, APPβ, and Aβ were recovered from the cell lysates while APPα, APPβ, and Aβ were detected in the media of NT2N neurons.
Cultured NT2N neurons were starved in methionine-free DMEM HG (Life Technologies, Inc., Gaithersburg, Md.) for 30 minutes prior to incubation in fresh methionine-free DMEM HG containing 0.5 mCi/ml of [^35S]methionine (sp act. 1000 Ci/mmol; NEN-DuPont, Boston, Mass.). […] Quantitation of bands in the autoradiogram was performed using the ImageQuant software (Molecular Dynamics Inc. Sunnyvale, Calif.) in accordance with procedures described by Turner et al. 1996 J. Biol. Chem. 271:8966-8970. Radiolabeled proteins in SDS-PAGE gels and nitrocellulose replicas were also analyzed by standard autoradiographic methods. […]

Each structure is given as a SMILES string.

`C[C@H]1CCC/C=C/[C@@H]2C[C@H](O)C[C@H]2[C@H](O)/C=C/C(=O)O1` [BFA, Brefeldin A]: in assay [1] (cell lysate), the “intracellular Aβ40” value is “complete loss”, the “intracellular Aβ42” value is given as “largely unaffected” and the “reduction of overall expression of intracellular Aβ” value is “approximately 60%”. The “secretion of Aβ into the medium” value in assay [1] (medium) is “abolished”. Besides, the “APPβsw and Aβ production” value in assay [2] is “completely eliminates”. Also, the “surface expression of APP695” value in assay [3] is listed as “blocked”. In addition, in assay [4] (20 μg/ml BFA, immunoprecipitation of media), the “secretion of APPα, APPβ, and Aβ into the medium” value is “completely abolished”. Also, the “electrophoretic mobility of APPβ from BFA-treated versus untreated cells” value in assay [4] (SDS-PAGE of immunoprecipitated APPβ) is given as “migrated more quickly”.
